Where only a bound is given, the exact number is not on record here.

Assay [1] has as its target T1, Cyclic GMP-AMP synthase (Homo sapiens, UniProt Q8N884). In words: Inhibition of CGAS in human THP1 cells transfected with interferon stimulatory DNA and measured after 16 hrs by Gaussia luciferase reporter gene assay. Format: cell-based.
The target of assay [2] is T1, Cyclic GMP-AMP synthase. Nature of the assay: Inhibition of recombinant His6-SUMO tagged human CGAS expressed in Escherichia coli BL21/pLys cells incubated for 20 mins by Kinase Glo chemiluminescence assay.
Assay [3] concerns the target T1, Cyclic GMP-AMP synthase. In words: Inhibition of CGAS in human THP1 cells transfected with mock Sendai virus and measured after 16 hrs by Gaussia luciferase reporter gene assay. Format: cell-based.

T1 sequence (Q8N884 whole entry): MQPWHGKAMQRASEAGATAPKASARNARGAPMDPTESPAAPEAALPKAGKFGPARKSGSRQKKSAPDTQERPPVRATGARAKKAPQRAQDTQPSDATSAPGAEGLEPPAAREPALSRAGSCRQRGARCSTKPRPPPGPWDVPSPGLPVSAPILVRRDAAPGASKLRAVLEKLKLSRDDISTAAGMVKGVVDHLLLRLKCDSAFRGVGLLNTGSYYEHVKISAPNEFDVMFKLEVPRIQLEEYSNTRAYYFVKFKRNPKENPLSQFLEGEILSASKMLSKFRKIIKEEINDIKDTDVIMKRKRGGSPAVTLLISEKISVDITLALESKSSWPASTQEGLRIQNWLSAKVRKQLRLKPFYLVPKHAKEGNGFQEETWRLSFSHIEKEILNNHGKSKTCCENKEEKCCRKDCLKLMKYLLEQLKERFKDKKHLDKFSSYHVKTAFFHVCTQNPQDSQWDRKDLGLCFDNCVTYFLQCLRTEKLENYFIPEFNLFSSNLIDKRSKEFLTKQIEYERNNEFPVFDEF

For the compound `COc1cc(/C=C2\SC(=O)N(C)C2=O)c(Br)c(F)c1O`, the values for the IC50 against Cyclic GMP-AMP synthase [1], at Cyclic GMP-AMP synthase [2] and on Cyclic GMP-AMP synthase [3] were 2500 to 10000 nM, no more than 500 nM and no less than 10000 nM, respectively.

As to `COc1cc(/C=C2\SC(=O)N(C)C2=O)c(Br)cc1O`, the 50% inhibitory concentration (IC50) was no more than 2500 nM on Cyclic GMP-AMP synthase [1], no more than 500 nM at Cyclic GMP-AMP synthase [2] and no less than 10000 nM against Cyclic GMP-AMP synthase [3].

Turning to `COc1cc(/C=C2\SC(=O)N(C)C2=O)c(I)cc1O`, the IC50 at Cyclic GMP-AMP synthase [1] was 2500 to 10000 nM; at Cyclic GMP-AMP synthase [2], no more than 500 nM; on Cyclic GMP-AMP synthase [3], no less than 10000 nM.

On to `CN1C(=O)S/C(=C\c2cc(OCc3cncnc3N)c(O)cc2Br)C1=O`, for which the IC50 against Cyclic GMP-AMP synthase [1] was no more than 2500 nM; at Cyclic GMP-AMP synthase [2], no more than 500 nM; against Cyclic GMP-AMP synthase [3], no less than 10000 nM.

Regarding `CN1C(=O)S/C(=C\c2cc(OCc3cnc(NCc4cccnc4)nc3)c(O)c(F)c2Br)C1=O`, the IC50 against Cyclic GMP-AMP synthase [1] fell in the range of 2500 to 10000 nM; on Cyclic GMP-AMP synthase [2], 500 to 10000 nM.

Regarding `CC(Oc1cc(/C=C2\Sc3ncc(F)cc3C2=O)c(Br)c(F)c1O)c1cnc(N)nc1` (stereo unspecified), the values for the IC50 on Cyclic GMP-AMP synthase [1] and on Cyclic GMP-AMP synthase [2] were 2500 to 10000 nM and no more than 500 nM, respectively.

On to `CC(C)C(=O)N1CCC(COc2cc(/C=C3\SC(=O)N(C)C3=O)c(Br)cc2O)CC1`, for which the values for the half-inhibitory concentration (IC50) on Cyclic GMP-AMP synthase [1], on Cyclic GMP-AMP synthase [2] and against Cyclic GMP-AMP synthase [3] were 2500 to 10000 nM, no less than 10000 nM and no less than 10000 nM, respectively.

Regarding `Nc1ncc(COc2cc(/C=C3\Sc4ncccc4C3=O)c(Br)cc2O)c(C2CC2)n1`, the IC50 on Cyclic GMP-AMP synthase [1] was 2500 to 10000 nM; on Cyclic GMP-AMP synthase [2] it was no more than 500 nM.

Regarding `CC(C)n1ccc(COc2cc(/C=C3\SC(=O)N(C)C3=O)c(Br)cc2O)cc1=O`, the IC50 at Cyclic GMP-AMP synthase [1] is 2500 to 10000 nM; at Cyclic GMP-AMP synthase [2], no less than 10000 nM; against Cyclic GMP-AMP synthase [3], no less than 10000 nM.

For `Cc1nc(N)ncc1COc1cc(/C=C2\SC(=O)N(C)C2=O)c(Br)c(F)c1O`, the values for the IC50 against Cyclic GMP-AMP synthase [1], on Cyclic GMP-AMP synthase [2] and on Cyclic GMP-AMP synthase [3] were no more than 2500 nM, no more than 500 nM and no less than 10000 nM, respectively.

Turning to `CC(Oc1cc(/C=c2\sc3nccn3c2=O)c(Br)c(F)c1O)c1cnc(N)nc1` (stereo unspecified), the IC50 against Cyclic GMP-AMP synthase [1] was no less than 10000 nM; on Cyclic GMP-AMP synthase [2], 500 to 10000 nM.

For the compound `CN1C(=O)S/C(=C\c2cc(OC(F)(F)F)c(O)cc2Br)C1=O`, the half-inhibitory concentration (IC50) at Cyclic GMP-AMP synthase [1] is no more than 2500 nM; at Cyclic GMP-AMP synthase [2], no less than 10000 nM; against Cyclic GMP-AMP synthase [3] it was 2500 to 10000 nM.

As for `CN1C(=O)S/C(=C\c2cc(OCc3cnc[nH]3)c(O)cc2Br)C1=O`, the IC50 against Cyclic GMP-AMP synthase [1] was 2500 to 10000 nM; at Cyclic GMP-AMP synthase [2], no less than 10000 nM; against Cyclic GMP-AMP synthase [3], no less than 10000 nM.

`CN1C(=O)S/C(=C\c2cc(OCc3cnc(NCc4ccncc4)nc3)c(O)cc2Br)C1=O`: the results for the IC50 at Cyclic GMP-AMP synthase [1], at Cyclic GMP-AMP synthase [2] and at Cyclic GMP-AMP synthase [3] were 2500 to 10000 nM, no more than 500 nM and no less than 10000 nM, respectively.

Turning to `Cc1ncc(COc2cc(/C=C3\Sc4ncccc4C3=O)c(Br)cc2O)cn1`, the IC50 was 2500 to 10000 nM on Cyclic GMP-AMP synthase [1] and no more than 500 nM on Cyclic GMP-AMP synthase [2].

As for `CC(Oc1cc(/C=C2\Sc3ncccc3C2=O)c(Br)cc1O)c1cnc(N)nc1` (stereo unspecified), the figures for the half-inhibitory concentration (IC50) at Cyclic GMP-AMP synthase [1], at Cyclic GMP-AMP synthase [2] and at Cyclic GMP-AMP synthase [3] were no more than 2500 nM, no more than 500 nM and no less than 10000 nM, respectively.

As for `CN1C(=O)S/C(=C\c2cc(OCc3ccc(N)nc3)c(O)cc2Br)C1=O`, the values for the IC50 against Cyclic GMP-AMP synthase [1], on Cyclic GMP-AMP synthase [2] and against Cyclic GMP-AMP synthase [3] were 2500 to 10000 nM, no less than 10000 nM and 2500 to 10000 nM, respectively.

For `CN1C(=O)S/C(=C\c2cc(OCc3ccnc4[nH]cnc34)c(O)cc2Br)C1=O`, the IC50 is no more than 2500 nM on Cyclic GMP-AMP synthase [1], no more than 500 nM on Cyclic GMP-AMP synthase [2] and no less than 10000 nM against Cyclic GMP-AMP synthase [3].

As to `Cc1ncc(COc2cc(/C=C3\SC(=O)C(C)C3=O)c(Br)c(F)c2O)c(N)n1` (stereo unspecified), the IC50 is 2500 to 10000 nM against Cyclic GMP-AMP synthase [1] and no more than 500 nM at Cyclic GMP-AMP synthase [2].

Take `CN1C(=O)S/C(=C\c2cc(OCc3cnc(NCCO)nc3)c(O)c(F)c2Br)C1=O`: the concentration for half-maximal inhibition (IC50) is no more than 2500 nM on Cyclic GMP-AMP synthase [1], no more than 500 nM at Cyclic GMP-AMP synthase [2] and no less than 10000 nM against Cyclic GMP-AMP synthase [3].

Turning to `CN1C(=O)S/C(=C\c2cc(OCc3cnc(N)nc3C3CC3)c(O)cc2Br)C1=O`, the IC50 on Cyclic GMP-AMP synthase [1] was 2500 to 10000 nM; at Cyclic GMP-AMP synthase [2], no more than 500 nM; against Cyclic GMP-AMP synthase [3], no less than 10000 nM.

In the case of `CN1C(=O)S/C(=C\c2cc(OCc3cnc(N4CCNCC4)nc3)c(O)cc2Br)C1=O`, the IC50 is 2500 to 10000 nM against Cyclic GMP-AMP synthase [1], no more than 500 nM on Cyclic GMP-AMP synthase [2] and no less than 10000 nM at Cyclic GMP-AMP synthase [3].

For `CN1C(=O)S/C(=C\c2cc(OCc3ncc(N)cn3)c(O)cc2Br)C1=O`, the IC50 on Cyclic GMP-AMP synthase [1] is 2500 to 10000 nM; on Cyclic GMP-AMP synthase [2] it was no less than 10000 nM; against Cyclic GMP-AMP synthase [3] it was no less than 10000 nM.

For the compound `O=C1/C(=C/c2cc(OCc3cnc(Cl)nc3)c(O)cc2Br)Sc2ncccc21`, the values for the concentration for half-maximal inhibition (IC50) at Cyclic GMP-AMP synthase [1] and at Cyclic GMP-AMP synthase [2] were 2500 to 10000 nM and no more than 500 nM, respectively.

For the compound `CC(Oc1cc(/C=C2\SC(=O)N(C)C2=O)c(Br)c(F)c1O)c1cnc(N)nc1` (stereo unspecified), the results for the IC50 against Cyclic GMP-AMP synthase [1] and at Cyclic GMP-AMP synthase [2] were no more than 2500 nM and no more than 500 nM, respectively.

Consider `CN1C(=O)S/C(=C\c2cc(OCc3cncnc3N)c(O)c(F)c2Br)C1=O`, for which the values for the 50% inhibitory concentration (IC50) against Cyclic GMP-AMP synthase [1] and at Cyclic GMP-AMP synthase [2] were no less than 10000 nM and no more than 500 nM, respectively.

In the case of `CC(Oc1cc(/C=C2\Sc3ncccc3C2=O)c(Br)c(F)c1O)c1cnc(N)nc1` (stereo unspecified), the IC50 against Cyclic GMP-AMP synthase [1] was 2500 to 10000 nM; at Cyclic GMP-AMP synthase [2], no more than 500 nM.

Consider `CN1C(=O)S/C(=C\c2cc(OCC(=O)c3cnc(N)nc3)c(O)c(F)c2Br)C1=O`, for which the values for the IC50 on Cyclic GMP-AMP synthase [1] and at Cyclic GMP-AMP synthase [2] were 2500 to 10000 nM and 500 to 10000 nM, respectively.

Consider `CN1C(=O)S/C(=C\c2cc(OCc3cncnc3)c(O)cc2Br)C1=O`, for which the half-inhibitory concentration (IC50) was no more than 2500 nM at Cyclic GMP-AMP synthase [1], no more than 500 nM at Cyclic GMP-AMP synthase [2] and no less than 10000 nM on Cyclic GMP-AMP synthase [3].

Source of the values: ChEMBL document CHEMBL4418308, “cGAS ANTAGONIST COMPOUNDS” (2017).
